Measured values as given in patent US7094754B2, “Anti-aging and wound healing compounds” (Kimberly-Clark Worldwide, Inc., priority 2001, dated 2006).

Key:
[1] = system: normal human dermal fibroblasts (NHDF); test: NHDF migration assay (48-well chemotaxis chamber); assay type: cell-based
Description: Normal, human dermal fibroblasts (NHDF) were obtained from Biowhittaker, (Walkersville, Md.) and propagated in T75 flasks in FBM media (500 mL, Biowhittaker) containing insulin, hFGF-b, GA-1000, and fetal bovine serum (10 mL) for up to 12 passages. For the migration assay, NHDF were washed once with 10 mL of Hank's buffered saline solution (HBSS). Three milliliters of trypsin (0.25%) in EDTA were added to the T75 flask for no more than five minutes to remove NHDF from the flask. NHDF in trypsin solution were added to 7 mL of FBM with no supplements added. NHDF were centrifuged for 5 minutes, and the supernatant was removed. NHDF were resuspended in 10 mL of FBM for counting. NHDF were centrifuged for another 5 minutes, and the supernatant was removed. NHDF were resuspended at 1×10^6 cells per mL in FBM without supplements. It was important to use FBM media only in migration assays because the complete media contains fibroblast growth factor and serum, both of which will trigger migration of fibroblasts.
Peptides were synthesized and purified by the Microchemical Facility at Emory University or by SigmaGenesis. All peptides were analyzed by mass spectrometry after HPLC to assess purity. Approximately 0.5–2.0 milligrams of peptide were used to make fresh stock solutions (5 mg/mL in PBS) for each migration assay. The peptide stock solutions in PBS were used to make more dilute solutions (1 mg/mL, 100 μg/mL, 10 μg/mL, 1 μg/mL, 100 ng/mL, 10 ng/mL) in FBM (without supplements) for the migration assays.
Polyvinylpyrrolidone-free polycarbonate membranes with […] pores (Neuroprobe, Inc., Gaithersburg, Md.) were washed with 90% ethanol for 15 minutes and rinsed four times with deionized water. Membranes were then placed into a glass dish containing an aqueous solution of 5 μg/mL gelatin. The glass dish was placed in to a water bath at about 90° C. for one hour. Membranes were removed from the gelatin solution and were allowed to dry for one hour in the 37° C. incubator.
A 48-well chemotaxis chamber (Neuroprobe, Inc., Gaithersburg, Md.) (see FIG. 20) was used for the migration assays. Twenty-eight/μL of each test solution were added to the bottom wells of the chamber in quadruplicate. A gelatin-treated membrane was placed carefully on top of the bottom wells. The gasket and top part of chamber were then placed carefully on top of the membrane. The apparatus was tightened using six thumbscrews. A solution of NHDF containing an estimated cell density (2×10^5 cells per mL) was made by adding 320 μL of the 1×10^6 cells per mL solution to 1.28 mL of FBM (no supplements). Fifty microliters of the 2×10^5 cells per mL NHDF solution were added to the top part of each well in the chamber. The chamber was placed in the incubator at 37° C./5% CO2 for three hours. The chamber was removed, the thumbscrews were removed, and the chamber was turned upside down on a paper towel. […] The membrane was carefully removed. […] The membrane was fixed with methanol and stained using the Diff-Quik Staining Solutions I and II. The nuclei of NHDF are stained purple. The membrane was mounted on a glass slide using cedarwood immersion oil and a cover slip. […] The average number of migrated NHDF in the negative control was subtracted from the experimental (peptide) data and positive control data.

[2] = system: human skin fibroblast cell line (Clonetics, CC-2509); test: Collagen production in human skin fibroblasts (Takara EIA kit); assay type: cell-based; settings: for collagen production, Median (absorbance at 450 nm) / collagen production, Mean (absorbance at 450 nm): 48 hours; for collagen production, Mean (absorbance at 450 nm): n=2, control mean 0.7388
Description: The stimulation response of the 19mer peptide (SEQ ID NO:11) on collagen production in the human skin fibroblast cell line (Clonetics, Walkersville, Md., normal human dermal fibroblasts, neonatal, catalog number CC-2509) was measured using Takara Biomedicals EIA assay kit (TAK MK101) sold by Panvera (Madison, Wis.). The cells were first grown in a 96-well assay system using Dulbecco's Modified Eagle's Medium (DMEM) with 10% fetal bovine serum (FBS) both purchased from Sigma Chemical Co, St. Louis, Mo. Serum-free DMEM was used as a control. […] Plates were incubated for 24 hours at 37° C. in a humidified 5% CO2 atmosphere. After incubation, the medium was aspirated and the wells were rinsed twice with 100 μl of serum-free DMEM. […] In addition, 100 μl of vehicle (serum-free DMEM) was added to 4 wells as control. All wells were incubated for 48 hours at 37° C. in a humidified, 5% CO2 atmosphere.
The assay was performed using the recommended 20 ul of the supernatant from each well of the 96-well plate. Standard buffer and stop solutions were freshly prepared before running the assay. 100 ul of antibody-POD conjugate solution (supplied with the kit) was added into the wells using pre antibody coated 96 well plate (supplied with the kit). 20 ul of standard and test solutions (from the other 96-well plate containing fibroblasts) were added to appropriate wells. Plate was mixed gently, sealed and incubated for three hrs. at 37° C.
After incubation each well was washed carefully four times with PBS buffer (400 ul). All the wells were completely emptied at the end of washing from any liquid. 100 ul of substrate solution (hydrogen peroxide and tetramethylbenzidine in a buffer solution, supplied with the kit) was added to each well and the plate was incubated for 15 minutes. At this point 100 ul of stop solution (freshly prepared 1N H2SO4) was added to each well in the same order as substrate. The plate was gently mixed and absorbance was read at 450 nm. Results were analyzed statistically using one-way ANOVA.

## CC(C)[C@H](NC(=O)[C@H](CC(=O)O)NC(=O)[C@@H]1CCCN1C(=O)[C@H](CC(N)=O)NC(=O)CNC(=O)[C@H](CS)NC(=O)[C@H](CCCNC(=N)N)NC(=O)[C@@H]1CCCN1)C(=O)N[C@@H](C)C(=O)N[C@@H](CC(N)=O)C(=O)N[C@@H](Cc1ccc(O)cc1)C(=O)N[C@@H](CC(N)=O)C(=O)N[C@@H](Cc1ccccc1)C(=O)N[C@@H](Cc1ccccc1)C(=O)N1CCC[C@H]1C(=O)N[C@@H](CCCNC(=N)N)C(=O)N[C@@H](CCCCN)C(=O)N1CCC[C@H]1C(=O)N[C@@H](CCCCN)C(=O)O [19-mer]
[1]; 100 μg/mL peptide, three hours
  percent of migrated NHDF compared to plasma fibronectin positive control: 46%±3%
[1]; 100 μg/mL peptide, three hours, listed as 19-mer peptide
  percent of migrated NHDF compared to plasma fibronectin positive control: 46±3%
[1]; 1000 μg/mL peptide, three hours
  percent of migrated NHDF compared to plasma fibronectin positive control: 55%±3%
[1]; 1000 μg/mL peptide, three hours, listed as 19-mer peptide
  percent of migrated NHDF compared to plasma fibronectin positive control: 55±3%
[1]; concentrations below 100 μg/mL
  percent of migrated NHDF compared to plasma fibronectin positive control: about 20%
[2]; 1×10^−5 M
  collagen production, Median (absorbance at 450 nm): 0.8365
  collagen production, Mean (absorbance at 450 nm): 0.8365
[2]; 1×10^−6 M
  collagen production, Median (absorbance at 450 nm): 0.8315
  collagen production, Mean (absorbance at 450 nm): 0.8315
[2]; 10^−5 and 10^−6 M, P<0.001
  collagen production versus control: increased collagen production at both concentrations employed
